Measured values taken from US4567201A, “Diphenoxypropane derivatives and compositions of antiasthmatic and antiinflammatory agents thereof” (Takeda Chemical Industries, Ltd., priority 1981, dated 1986).
Read-outs that look alike come from different tables or passages of the source.

Key:
[1] = tested on: leukotriene D4 (LTD4)-induced contraction of the guinea pig ileum; test: Anti-SRS-A activity: inhibition of LTD4-induced contraction of guinea pig ileum; settings: 50% inhibition of LTD4-induced contraction (60-70% of maximum contraction), drug added 1 minute before LTD4
Excerpt: The present inventors studied the antagonistic action of compound (I)-A against SRS-A using a synthetic LTD4 in the following manner.
The inhibitory effect of the drug on the contractile response (60-70% of maximum contraction) of the ileum of guinea pig (body weight 300-350 g, female and male) to leukotriene D4 (LTD4) was investigated. In Tyrode solution containing atropine (10^-7 M) and mepyramine (10^-6 M), 3×10^-10 or 10^-9 M of LTD4 was repeatedly permitted to act on the guinea pig ileum and after the amplitude of contraction had become constant, a solution of the test drug was added to a final concentration of 10^-9 to 10^-4 M. After 1 minute, the same concentration of LTD4 was further added and the anti-SRS-A activity of the drug was calculated from the change in contraction amplitude by means of the following equation. [formula]
To obtain the IC50 value, the mole concentration of the drug showing a 50% inhibition of the contractile response was determined from plots on a graph.
The drug was used as dissolved in dimethyl sulfoxide. The solvent was used in an amount less than 1% which would not exert any influence on the ileum.

[2] = tested on: bronchoconstriction due to leukotriene D4 (LTD4); test: Inhibition of bronchoconstriction due to intravenous LTD4 in guinea pigs (Konzett-Rossler); type: in vivo, guinea pig (Hartley strain); settings: for % Inhibition, Experiment 1: 2 minutes before LTD4 10 μg/kg i.v.; for % Inhibition, Experiment 1 / % Inhibition, Experiment 2: 30 seconds after LTD4; for % Inhibition, Experiment 2: 30 minutes before LTD4 10 μg/kg i.v.; for minimal effective dose: Cavia porcellus, iv, dose causing statistically significant difference vs control group, significance level <5%; for inhibitory effect upon the bronchoconstriction compared with Control compound-1 (in words): LTD4, i.v.
Experimental: Guinea pigs of Hartley strain, both male and female, with body weights about 400 g were assigned to groups of 6 individuals, and the bronchoconstriction due to LTD4 were measured according to the method of Konzett-Rossler, [Konzett, H. and Rossler, R.: Naunyn-Schmiedebergs Archiv Fur Experimentelle Pathologie und Pharmakologie 195, 71-74 (1940)]. Each guinea pig was fixed in supine position under urethane anesthesia (1.5 g/kg, intraperitoneal) and the trachea was incised and connected to an artificial respiration apparatus, Rodent Respirator Model 680 [Harvard Apparatus Company, U.S.A.] via a cannula. The branch tube of this tracheal cannula was connected to Bronchospasm Transducer Model 7020 [Ugobasil Biological Research Apparatus, Italy]. Under the conditions of 5 to 7 ml of air per stroke, 70 strokes per minute and a lung loading pressure of 10 cmH2 O, the volume of overflowing air was recorded on Rectigraph-8S (Sanei Sokki Ltd., Japan) via a transducer. After administration of gallamine triethiodide (1 mg/kg, i.v.), 10 μ g/kg of histamine.2HCl was intravenously administered to investigate the response of the animal. Then, a solution of LTD4 in physiological saline (10 μg/kg) was intravenously administered and the bronchoconstriction elicited thereby was recorded for 15 minutes. Two minutes before LTD4 loading, compound (I)-A-1 was intravenously administered in a volume of 0.1 ml per 100 g body weight. Compound (I)-A-1 and LTD4 were administered through a cannula inserted into the jugular vein.
The compound (I)-A-1 was used as dissolved in physiological saline containing sodium hydrogen carbonate, and LTD4 was taken from a stock stored in methanol (1 mg/1 ml methanol) at -70° C.
The bronchoconstriction induced by intravenous administration of 10 μg/kg of LTD4 as given 2 minutes after the administration of physiological saline was maximal at the time of 30 seconds after the administration of LTD4 and, since then, was rapidly attenuated to about 50% at the time of 2 minutes but lasted till 15 minutes. Assuming that the response at complete obstruction is 100%, the values at 30 seconds and 15 minutes were 47.4±6.9% (n=6, Mean±S.E.) and 19.4±2.8% (Mean±S.E.), respectively (S.E.: standard error).
Then the present inventors studied the antagonistic action of the compound (I)-B against SRS-A using a synthetic LTD4 in the manner described on the compound (I)-A.
In each case, the bronchoconstriction following intravenous administration of 10 μg/kg of LTD4 at 2 or 30 minutes after the administration of physiological saline reached a maximum 30 seconds after the administration of LTD4, and then decreased to about 50% at 2 minutes after the administration of LTD4. The response continued for 15 minutes after the administration of LTD4. Repeated experiments using 6 animals per group gave mean degrees of maximum bronchoconstriction (30-second values) of 52.2-67.1% and 54.7-70.1%, respectively, as compared with the state of complete obstruction (100%). In experiment 1, the test compounds (I)-B-1, (I)-B-2 and Control compound-1 were each intravenously administered at two minutes before the administration of LTD4 and inhibitory effect on the bronchoconstriction was examined. The minimum effective doses (causing statistically significant differences as compared with the control group; significance level <5%) were 0.313, 0.313 and 5 mg/kg, respectively. The corresponding inhibition percentages were 41, 52 and 56%, respectively. In experiment 2, the test compounds were intravenously administered 30 minutes before the administration of LTD4 and the effect on the above response was examined. The minimum effective doses were 5, 5, and 20 mg/kg, respectively.
The test compounds were intravenously administered 2 minutes before the
intravenous administration of 10 μg/kg of LTD4.
The test compounds were intravenously administered 30 minutes before the
Each value was calculated from the volume (in percentage) of air […]

[3] = Acute toxicity in mice; type: in vivo, mouse (Jcl:ICR strain); settings: 500 mg/kg oral; for Autopsy findings: after 7 days; for symptoms attributable to compound after oral administration: male mice
Experimental: Five 5-week-old male mice of Jcl:ICR strain, weighing 26.0 to 30.5 g, were used. Compound (I)-A-1 was suspended in a 5% solution of gum arabic and administered orally by gastric gavage at the level of 0.2 ml per 10 grams body weight.
Five 5-week-old male mice of Jcl:ICR strain, weighing 26.0 to 30.5 g, were used. Compound (I)-B-1 or (I)-B-2 was suspended in a 5% solution of gum arabic and administered orally by gastric gavage at the level of 0.2 ml per 10 grams body weight.

[4] = tested on: antigen-induced bronchoconstriction; test: Antigen-induced bronchoconstriction in sensitized guinea pigs; type: in vivo, guinea pig (Hartley strain); settings: for % Inhibition: 2 minutes prior to antigen (EA 1 mg/kg i.v.), one minute after antigen; for minimal effective dose: Cavia porcellus, iv, 2 minutes prior to antigen administration, read-out: minimum effective dose; for inhibitory effect on the antigen-induced bronchoconstriction compared with Control compound-1 (in words): i.v., 2 minutes prior to antigen
Experimental: According to the method of Orange and Moore [Orange, R. P. and Moore, E. G., Journal of Immunology, 116, 392-397 (1976)], Hartley-strain male guinea pigs weighing about 350 g were sensitized by intraperitoneal administration of 1 ml of an emulsion composed of 0.5 ml of physiological saline containing 1 mg of egg alubumin (EA) and 0.5 ml of Freund's complete adjuvant (Difco, USA). Three weeks after the sensitization, the serum antibody levels in the sensitized guinea pigs were determined by the 3-hour PCA reaction in guinea pigs and those guinea pigs that gave positive results in the PCA reaction with 1,000-fold diluted serum samples therefrom were used as the sensitized aminals. Using the Konzett-Rossler method as mentioned under the above paragraph (i), the bronchoconstriction due to the antigen-antibody reaction was induced by intravenous administration of 1 mg/kg of the antigen EA instead of LTD4, and recorded.
The bronchoconstriction in the control group as induced by antigen administration 2 minutes after the intravenous administration of physiological saline reached a maximum one minute after the intravenous administration of the antigen. Gradual recovery followed and the pretreatment state was almost restored in 15 minutes after the induction. Repeated experiments using 6 animals per group gave mean degrees of maximum bronchoconstriction (one-minute values) of 72.8-83.3% as compared with the state of complete obstruction (100%). The test compounds (I)-B-1, (I)-B-2 and Control compound-1 were each intravenously administered 2 minutes prior to antigen administration and the inhibitory effect on the bronchoconstriction was examined. The minimum effective doses were 5, 5 and 20 mg/kg, respectively, and the corresponding inhibition percentages were 51, 52 and 64%, respectively.
The test compounds were intravenously administered 2 minutes prior to
intravenous administration of the antigen.
Each value was calculated from the volume (in percentage) of air
overflowing from the respiratory tract at the time when the response was
maximal, i.e. one minute after administration of the antigen.

[5] = 1.25 mg/kg i.v., **P<0.01 for (I)-B-1 and (I)-B-2
[6] = 5 mg/kg i.v., P<0.001 for (I)-B-1 and Control compound-1, P<0.01 for (I)-B-2
[7] = 5 mg/kg i.v., **P<0.01 for (I)-B-1 and (I)-B-2
[8] = 20 mg/kg i.v., P<0.001 for (I)-B-1 and (I)-B-2, P<0.01 for Control compound-1
[9] = 30 minutes before LTD4, read-out: minimum effective dose, experiment 2
[10] = two minutes before LTD4, read-out: minimum effective dose, experiment 1
[11] = 5 mg/kg i.v., p<0.001 for (I)-B-1, p<0.01 for (I)-B-2

IC50 [1] [nM] | Structure (SMILES) | % Inhibition, Experiment 1 ([2]; 0.313 mg/kg i.v., *P<0.05) [%] | % Inhibition, Experiment 1 [2, 5] [%] | % Inhibition, Experiment 1 [2, 6] [%] | % Inhibition, Experiment 2 [2, 7] [%] | % Inhibition, Experiment 2 [2, 8] [%] | minimal effective dose [2, 9] [mg/kg] | minimal effective dose [2, 10] [mg/kg] | inhibitory effect upon the bronchoconstriction compared with Control compound-1 (in words) [2] | Autopsy findings [3] | symptoms attributable to compound after oral administration [3] | % Inhibition ([4]; 1.25 mg/kg i.v.) [%] | % Inhibition [4, 11] [%] | % Inhibition ([4]; 20 mg/kg i.v., ***p<0.001) [%] | minimal effective dose [4] [mg/kg] | inhibitory effect on the antigen-induced bronchoconstriction compared with Control compound-1 (in words) [4] | % Inhibition, Experiment 2 ([2]; 1.25 mg/kg i.v.) [%] | % Inhibition, Experiment 1 ([2]; 20 mg/kg i.v., ***P<0.001) [%]
19 | CCCc1c(OCC(O)COc2ccc(-c3nn[nH]n3)cc2Br)ccc(C(C)=O)c1O (stereo not shown) [Compound (I)-A-2, 2-hydroxy-3-propyl-4-[2-hydroxy-3-[2-bromo-4-(tetrazol-5-yl)phenoxy]propoxy]acetophenone] |  |  |  |  |  |  |  |  |  |  |  |  |  |  |  |  | 
70 | CCCc1c(OCCCOc2ccc(-c3nnn[nH]3)cc2Cl)ccc(C(C)=O)c1O [Compound (I)-A-3, 1-(4-acetyl-3-hydroxy-2-n-propylphenoxy)-3-[2-chloro-4-(tetrazol-5-yl)phenoxy]propane] |  |  |  |  |  |  |  |  |  |  |  |  |  |  |  |  | 
 | CCCc1c(OCC(O)COc2ccc(C(=O)O)cc2Cl)ccc(C(C)=O)c1O (stereo not shown) [Compound (I)-B-1, 4-[3-(4-acetyl-3-hydroxy-2-n-propylphenoxy)-2-hydroxypropoxy]-3-chlorobenzoic acid] | 41 | 51 | 84 | 42 | 96 | 5 | 0.313 | superior to Control compound-1 | did not reveal any abnormalities | no symptoms | 6 | 51 | 75 | 5 | superior to Control compound-1 |  | 
 | CCCc1c(OCCCOc2ccc(C(=O)O)cc2Cl)ccc(C(C)=O)c1O [Compound (I)-B-2, 4-[3-(4-acetyl-3-hydroxy-2-n-propylphenoxy)propoxy]-3-chlorobenzoic acid] | 52 | 77 | 79 | 42 | 66 | 5 | 0.313 | superior to Control compound-1 | did not reveal any abnormalities | no symptoms | 20 | 52 | 88 | 5 | superior to Control compound-1 | 10 | 
420 | CCCc1c(OCCCOc2ccc(C(=O)O)c(O)c2)ccc(C(C)=O)c1O [Control compound-1, reference compound] |  | 14 | 56 | 14 | 35 | 20 | 5 |  |  |  | 12 | 16 | 64 | 20 |  |  | 87
680 | CCCc1c(OCCCOc2cccc(-c3nn[nH]n3)c2)ccc(C(C)=O)c1O [Control compound-2, reference compound] |  |  |  |  |  |  |  |  |  |  |  |  |  |  |  |  | 
